13 compounds from patent US10676468B2, “N-(3-heteroarylaryl)-4-arylarylcarboxamides and analogs as hedgehog pathway inhibitors and use thereof” (IMPACT Therapeutics, Inc., priority 2012, dated 2020) can be followed below.

The structures appear in SMILES notation.

Common to all, as to format: cell-based, mouse
Test [1] deals with Hedgehog Signaling Pathway. Description: SAG-induced differentiation of C3H10T1/2 cells into osteoblastic cells, intracellular alkaline phosphatase activity. The conditions noted are these: Mus musculus, C3H 10T1/2, 120 h, 1 μM SAG, 5 days, alkaline phosphatase activity (OD405), read-out: IC50 values of compounds that inhibit Hh pathway. In outline: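 Mouse C3H10T1/2 cells were induced with SAG and exposed to compound (10 μM to 1 nM) for 5 days at 37 °C. Cells were lysed in 0.2% Triton, and alkaline phosphatase activity was read as OD405 over 30 min at 37 °C in pH 9.8 substrate buffer. IC50 came from a non-linear fit of background-subtracted OD405 against log concentration.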

In test [2] the test system is Hedgehog Signaling Pathway. Description: Gli-Luc reporter gene cell assay in C3H10T1/2/Gli-Luc cells stimulated with Shh. The settings on record: Mus musculus, C3H 10T1/2, 24 h, 30 nM Shh, luciferase activity (RLU), read-out: IC50 values of compounds that inhibit Hh pathway. In outline: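 C3H10T1/2 cells stably carrying Gli-responsive luciferase were seeded overnight, then treated 24 h at 37 °C with compound (7-point dilution series, DMSO control) plus Shh (30 nM in added medium). Lysate luciferase RLU fitted against log concentration to derive IC50.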
Background: Reporter assays use an easily measured gene product as a stand-in for the process of interest.

Test [3] deals with Hedgehog Signaling Pathway. Description: SHH-induced differentiation of C3H10T1/2 cells into osteoblastic cells, intracellular alkaline phosphatase activity. The settings on record: Mus musculus, C3H 10T1/2, 120 h, 10 nM SHH-N, 5 days, alkaline phosphatase activity (OD405), read-out: IC50 values of compounds that inhibit Hh pathway. Put shortly:
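Mouse C3H10T1/2 cells were induced with 10 nM SHH-N alongside test compound (10 μM–10 nM) for 5 days at 37 °C. Cells were lysed in 0.2% Triton, and alkaline phosphatase activity was read at OD405 over 30 min at 37 °C with the background reading subtracted. IC50 came from a nonlinear fit against log concentration.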

Regarding `Cc1cc(N2C[C@@H](C)N(C)[C@@H](C)C2)ccc1C(=O)Nc1ccc(Cl)c(-c2ncc(C(C)(C)C)[nH]2)c1` [Example 174, N-(3-(5-tert-butyl-1H-imidazol-2-yl)-4-chlorophenyl)-2-methyl-4-((3S,5R)-3,4,5-trimethylpiperazin-1-yl)benzamide], the IC50 came out at 91 nM in test [1], 5.7 nM in test [2] and 11 nM in test [3].

On to `Cc1cc(N2C[C@@H](C)N(C)[C@@H](C)C2)ccc1C(=O)Nc1ccc(Cl)c(-c2ncc(C3CC3)[nH]2)c1` [Example 177, N-(3-(5-cyclopropyl-1H-imidazol-2-yl)-4-chlorophenyl)-2-methyl-4-((3S,5R)-3,4,5-trimethylpiperazin-1-yl)benzamide], for which the IC50 turned out to be 23 nM in test [1], 0.67 nM in test [2] and 1 nM in test [3].

As for `COc1ccc(-c2ccc(C(=O)Nc3ccc(Cl)c(-c4nc5ccccc5[nH]4)c3)c(C)c2)cn1` [Example 66, N-(3-(1H-benzo[d]imidazol-2-yl)-4-chlorophenyl)-2-methyl-4-(6-methoxypyridin-3-yl)benzamide], the IC50 in test [1] was 24 nM; in test [2], 6.1 nM; in test [3], 7.1 nM.

On to `C[C@@H]1CN(c2cc(Cl)c(C(=O)Nc3ccc(Cl)c(-c4nc5ccccc5[nH]4)c3)cc2F)C[C@H](C)N1C` [Example 123, N-(3-(1H-benzo[d]imidazol-2-yl)-4-chlorophenyl)-2-chloro-5-fluoro-4-((3S,5R)-3,4,5-trimethylpiperazin-1-yl)benzamide], for which the IC50 in test [1] was 53 nM; in test [2] it was 0.39 nM; in test [3], 0.97 nM.

On to `Cc1cc(N2C[C@@H](C)N(C)[C@@H](C)C2)ccc1C(=O)Nc1ccc(Cl)c(-c2nc3ccccc3[nH]2)c1` [Example 93, N-(3-(1H-benzo[d]imidazol-2-yl)-4-chlorophenyl)-2-methyl-4-((3S,5R)-3,4,5-trimethylpiperazin-1-yl)benzamide], for which the figures for the IC50 in test [1], in test [2] and in test [3] were 32 nM, 0.5 nM and 0.69 nM, respectively.

Take `C[C@@H]1CN(c2cc(Cl)c(C(=O)Nc3ccc(Cl)c(-c4ncc(-c5cccs5)[nH]4)c3)cc2F)C[C@H](C)N1C` [Example 157, N-(3-(5-(thiophen-2-yl)-1H-imidazol-2-yl)-4-chlorophenyl)-2-chloro-5-fluoro-4-((3S,5R)-3,4,5-trimethylpiperazin-1-yl)benzamide]: the IC50 in test [1] amounted to 10 nM; in test [2] it was 0.23 nM; in test [3] it was 0.15 nM.

Regarding `C[C@@H]1CN(c2ccc(C(=O)Nc3cnc(Cl)c(-c4nc5ccc(Cl)cc5[nH]4)c3)c(Cl)c2)C[C@H](C)N1C` [Example 130, N-(5-(6-chloro-1H-benzo[d]imidazol-2-yl)-6-chloropyridin-3-yl)-2-chloro-4-((3S,5R)-3,4,5-trimethylpiperazin-1-yl)benzamide], the IC50 was 178 nM in test [1], 8.5 nM in test [2] and 18 nM in test [3].

`C[C@@H]1CN(c2ccc(C(=O)Nc3ccc(Cl)c(-c4ncc(C5CC5)[nH]4)c3)c(C(F)(F)F)c2)C[C@H](C)N1C` [Example 178, N-(3-(5-cyclopropyl-1H-imidazol-2-yl)-4-chlorophenyl)-2-(trifluoro-methyl)-4-((3S,5R)-3,4,5-trimethylpiperazin-1-yl)benzamide]: the IC50 was 26 nM in test [1], 1 nM in test [2] and 0.3 nM in test [3].

As for `Nc1cc(-c2ccc(C(F)(F)F)cc2)ccc1C(=O)Nc1ccc(Cl)c(-c2nc3ccccc3[nH]2)c1` [Example 25, N-(3-(1H-benzo[d]imidazol-2-yl)-4-chlorophenyl)-3-amino-4′-(trifluoromethyl)biphenyl-4-carboxamide], the IC50 in test [1] was determined as 191 nM; in test [2] it was 4 nM; in test [3], 5.5 nM.

As to `Cc1cc(N2C[C@@H](C)N(C)[C@@H](C)C2)ccc1C(=O)Nc1ccc(Cl)c(-c2nc(C)c(-c3cccs3)[nH]2)c1` [Example 143, N-(3-(4-methyl-5-(thiophen-2-yl)-1H-imidazol-2-yl)-4-chlorophenyl)-2-methyl-4-((3S,5R)-3,4,5-trimethylpiperazin-1-yl)benzamide], the IC50 in test [1] is 108 nM; in test [2] it was 2.3 nM; in test [3], 15 nM.

For the compound `C[C@@H]1CN(c2ccc(C(=O)Nc3ccc(Cl)c(-c4ncc(-c5ccc(Cl)s5)[nH]4)c3)c(Cl)c2)C[C@H](C)N1C` [Example 138, N-(3-(5-(5-chlorothiophen-2-yl)-1H-imidazol-2-yl)-4-chlorophenyl)-2-chloro-4-((3S,5R)-3,4,5-trimethylpiperazin-1-yl)benzamide], the IC50 in test [1] is 39 nM; in test [2], 0.58 nM; in test [3] it was 1.6 nM.

Regarding `Cc1cc(N2C[C@@H](C)N(C)[C@@H](C)C2)ccc1C(=O)Nc1ccc(Cl)c(-c2ncc(C3CCCCC3)[nH]2)c1` [Example 185, N-(3-(5-cyclohexyl-1H-imidazol-2-yl)-4-chlorophenyl)-2-methyl-4-((3S,5R)-3,4,5-trimethylpiperazin-1-yl)benzamide], the figures for the IC50 in test [1], in test [2] and in test [3] were 169 nM, 17 nM and 6.1 nM, respectively.

For `Cc1cc(-c2ccc(Cl)cc2)ccc1C(=O)Nc1ccc(Cl)c(-c2nc3ccccc3[nH]2)c1` [Example 8, N-(3-(1H-benzo[d]imidazol-2-yl)-4-chlorophenyl)-3-methyl-4′-chlorobiphenyl-4-carboxamide], the IC50 worked out at 86 nM in test [1], 4.6 nM in test [2] and 3.6 nM in test [3].

For orientation: IC50 means the concentration that gives 50% inhibition.
